Where two headings read alike, the source gives them in different places. Marks after values point to notes of the source that are not given here.
Experiments:
[1] = test system: isolated Langendorff-perfused rat hearts; assay: Ex vivo Langendorff-perfused rat heart, cardiac performance; conditions: for ∆% +dP/dtmax / ∆% LVDP / ∆% −dP/dtmax: increase vs. control; for LVDP: isolated rat heart, mean ± SD, n = 6
Experimental: The cardiac contractility and safety of prodrugs 3–5 were evaluated on the myocardium in normal isolated rat hearts with LZDO as a positive control. Prodrugs 3–5 exerted positive inotropic effects in a dose-dependent manner. The increased rate in left ventricular developed pressure (LVDP, accepted as contractile force), +dP/dtmax (used as an index of contractility), the maximum rate of pressure decrease of the left ventricle ([…], used as an index of diastolic function) and the heart rate (HR, used as an index of heart muscle oxygen consumption) of these compounds vs. control are listed in Table 1.
All commercial reagents and solvents were used without further purification unless otherwise specified. Melting points were determined using a model Buchi B-450 apparatus. ESI-MS were recorded on a TOF mass spectrometer (Applies-Biosystem Mariner). IR spectra were acquired by using a THERMO IR spectrometer Model Nicolet-100. ^1H- and ^13C-NMR spectra (500/125 MHz) were recorded on a Bruker Advance 500 spectrophotometer. Mass spectra were recorded on a ZAB-HS mass spectrometer and are reported as m/z values. HPLC analysis was conducted on a Waters 2695 HPLC instrument equipped with a UV detector (model 2489). LZDO and prodrugs 3–5 were analysed by HPLC, and their purity was confirmed to be greater than 98.0%. In vitro metabolic stability analysis was conducted by a HPLC method, using stock standard solutions of LZDO and prodrugs that were prepared in water at a concentration of 30 mM. The positive inotropic effects on the myocardium of LZDO and prodrugs 3–5 in vitro were evaluated on Langendorff-perfused hearts isolated from normal Sprague-Dawley rats. A HPLC method was applied to measure the rat plasma concentrations of LZDO and prodrug 3 after intragastric administration of prodrug 3 in the rats.
Sprague-Dawley adult male rats weighing 260–320 g were anaesthetised by intraperitoneal administration of 20% urethane (1.2 g/kg). The hearts were quickly removed and placed into an ice-cold modified buffer until contractions ceased. The heart was cleaned of surrounding tissues, mounted on the aortic cannula of the Langendorff perfusion system apparatus, and perfused with oxygenated buffer (mM): NaCl 117, KCl 5.7, CaCl2 1.8, MgCl2 1.7, NaHCO3 4.4, NaH2PO4 1.5, HEPES 20 and glucose 11. The buffer was equilibrated with 95% O2 and 5% CO2 and adjusted to pH 7.4 with NaOH before it entered the heart. An epicardial electrogram was registered using two stainless steel electrodes, one attached to the apex of the heart and the other to the aortic cannula. To obtain an isovolumetrically beating preparation, a latex balloon filled with water and connected by a catheter to a transducer was inserted through the left atrium into the left ventricle and inflated to provide an end-diastolic pressure between 8 and 12 mm Hg. Before each experimental protocol was initiated, the isolated hearts were set at a mean arterial pressure of 60–80 mm Hg and allowed to stabilise at 37 °C for 40–60 min. The isolated rat hearts were then perfused in sequence with 1, 10, and 100 μM of LZDO and prodrugs 3–5 in each group. A RM6240B/C four channel physiological recording instrument (Chengdu Instrument Factory, Chengdu, China) was used for continuous recording of LVSP, LVEDP, HR (derived from electrogram), +dP/dtmax and −dP/dtmax throughout the experiments. The criteria for established stability were LVDP > 50 mmHg, +dP/dtmax > 1,600 mmHg·s^−1, heart rate > 180 beats·min^−1 and normal sinus rhythm. The hearts were not studied if they had weak contractility (+dP/dtmax < 1,600 mmHg·s^−1) and severe arrhythmia. Diastolic balloon pressure was maintained at 8 mmHg. LVDP was calculated as the difference between the systolic and diastolic pressures. The results are expressed as the mean value of hemodynamic variables (n = 6). Statistical analysis was performed using SPSS for Windows (version 13.0). Data were analyzed by One-way ANOVA. […]

[2] = set-up: method as in earlier work; conditions: cited from earlier work; for AUC0–t / AUC0–∞ / Cmax / Tmax / t1/2: rat

Question: With Cc1nc(CO)c(C)nc1CO [1a, Liguzinediol] as the compound, how does the “+dP/dtmax” value ([1]; 1 μM) read?
Answer: The value was 1,836 ± 121 mmHg/s.

Question: And the HR ([1]; 1 μM)?
Answer: Its HR is 186 ± 29 beat·min^−1.

Question: What about the “−dP/dtmax” value ([1]; 1 μM) of the same compound?
Answer: Its value is −1,175 ± 125 mmHg/s.

Question: And the “∆% +dP/dtmax” value ([1]; 1 μM)?
Answer: The value was 9.4 ± 8.1%.

Question: What about the “∆% LVDP” value ([1]; 1 μM) of the same compound?
Answer: The value was 19.4 ± 11.0%.

Question: What about the “∆% −dP/dtmax” value ([1]; 1 μM) of the same compound?
Answer: The value was 11.1 ± 10.0%.

Question: And the LVDP ([1]; 1 μM)?
Answer: Its LVDP is 60 ± 5 ^b mmHg.

Question: And the “+dP/dtmax” value ([1]; 10 μM)?
Answer: Its value is 2,125 ± 242 ^bc mmHg/s.

Question: What about the HR ([1]; 10 μM) of the same compound?
Answer: Its HR is 209 ± 21 beat·min^−1.

Question: And the “−dP/dtmax” value ([1]; 10 μM)?
Answer: Its value is −1,371 ± 186 ^bc mmHg/s.

Question: What about the “∆% +dP/dtmax” value ([1]; 10 μM) of the same compound?
Answer: Its value is 26.5 ± 13.4%.

Question: And the “∆% LVDP” value ([1]; 10 μM)?
Answer: The value was 45.6 ± 9.0%.

Question: And the “∆% −dP/dtmax” value ([1]; 10 μM)?
Answer: Its value is 30.3 ± 0.3%.

Question: And the LVDP ([1]; 10 μM)?
Answer: The LVDP was 73 ± 4 ^bd mmHg.

Question: What about the “+dP/dtmax” value ([1]; 100 μM) of the same compound?
Answer: Its value is 2,702 ± 287 ^bdf mmHg/s.

Question: What about the HR ([1]; 100 μM) of the same compound?
Answer: Its HR is 193 ± 15 beat·min^−1.

Question: What about the “−dP/dtmax” value ([1]; 100 μM) of the same compound?
Answer: Its value is −1,911 ± 200 ^bdf mmHg/s.

Question: And the “∆% +dP/dtmax” value ([1]; 100 μM)?
Answer: The value was 60.9 ± 17.3%.

Question: And the “∆% LVDP” value ([1]; 100 μM)?
Answer: Its value is 76.3 ± 12.3%.

Question: And the “∆% −dP/dtmax” value ([1]; 100 μM)?
Answer: Its value is 82.0 ± 27.9%.

Question: And the LVDP ([1]; 100 μM)?
Answer: The LVDP was 88 ± 3 ^bdf mmHg.

Question: And the “AUC0–t” value ([2]; LZDO 10 mg·kg^−1 i.g.)?
Answer: The value was 16740 ± 8900 ng·h/mL.

Question: What about the “AUC0–∞” value ([2]; LZDO 10 mg·kg^−1 i.g.) of the same compound?
Answer: The value was 17080 ± 8990 ng·h/mL.

Question: And the Cmax ([2]; LZDO 10 mg·kg^−1 i.g.)?
Answer: Its Cmax is 8580 ± 2660 ng/mL.

Question: What about the Tmax ([2]; LZDO 10 mg·kg^−1 i.g.) of the same compound?
Answer: The Tmax was 0.29 ± 0.10 h.

Question: And the t1/2 ([2]; LZDO 10 mg·kg^−1 i.g.)?
Answer: Its t1/2 is 2.21 ± 1.11 h.

Question: What about the “AUC0–t” value ([2]; LZDO 20 mg·kg^−1 i.g.) of the same compound?
Answer: The value was 34840 ± 24640 ng·h/mL.

Question: And the “AUC0–∞” value ([2]; LZDO 20 mg·kg^−1 i.g.)?
Answer: Its value is 35930 ± 24080 ng·h/mL.

Question: And the Cmax ([2]; LZDO 20 mg·kg^−1 i.g.)?
Answer: The Cmax was 17020 ± 5500 ng/mL.

Question: And the Tmax ([2]; LZDO 20 mg·kg^−1 i.g.)?
Answer: Its Tmax is 0.29 ± 0.10 h.

Question: And the t1/2 ([2]; LZDO 20 mg·kg^−1 i.g.)?
Answer: The t1/2 was 2.57 ± 2.14 h.

Question: And the “AUC0–t” value ([2]; LZDO 50 mg·kg^−1 i.g.)?
Answer: The value was 92850 ± 64100 ng·h/mL.

Question: What about the “AUC0–∞” value ([2]; LZDO 50 mg·kg^−1 i.g.) of the same compound?
Answer: The value was 94820 ± 66880 ng·h/mL.

Question: What about the Cmax ([2]; LZDO 50 mg·kg^−1 i.g.) of the same compound?
Answer: The Cmax was 49330 ± 10500 ng/mL.

Question: What about the Tmax ([2]; LZDO 50 mg·kg^−1 i.g.) of the same compound?
Answer: The Tmax was 0.29 ± 0.10 h.

Question: What about the t1/2 ([2]; LZDO 50 mg·kg^−1 i.g.) of the same compound?
Answer: The t1/2 was 1.78 ± 0.57 h.

Question: And the half-life ([2]; after intragastric administration, rats)?
Answer: The half-life was “about 2 h”.

Source: publication PMC6270099, “Synthesis, Biological Evaluation, and Pharmacokinetic Study of Novel Liguzinediol Prodrugs” (Molecules, 2013)
